Test results from the NIST ThermoML archive (doi:10.1021/acs.jced.7b00585).
Numbers after ± are expanded uncertainties.

Conditions: Crystal; visual observation

Normal melting temperature: 175 ± 2 °C
Structure (SMILES): CC1(C)COP(=O)(C(Nc2ccccc2)c2ccccc2)OC1 (stereo unspecified)
